In patent US12162876B2, “Indazole kinase inhibitor and use thereof” (Tarapeutics Science Inc., priority 2018, dated 2024):

Key:
Format in all cases: cell-based
[1] = tested on: BaF3; assay: Cell proliferation (CCK-8, 72 h), parental BaF3; conditions: Mus musculus, parental BaF3 cells
From the text: (§1) In this example, human gastrointestinal stromal tumor cell line GIST-T1 (expressing wild-type C-KIT gene) (purchased from Cosmo Bio Co., Ltd. (Japan)), human gastrointestinal stromal tumor cell line GIST-T1-T670I (expressing C-KIT-T670I mutant gene) (constructed by our laboratory with CRISPR technology), mouse […] BaF3 (purchased from ATCC) were used. In addition, in this Example, mouse Tel-cKit-BaF3 (stably expressing C-KIT wild-type kinase), mouse Tel-cKit/T670I-BaF3 (stably expressing cKIT T670I mutant kinase), mouse Tel-PDGFRα-BaF3 (stably expressing PDGFRα kinase), mouse Tel-PDGFRβ-BaF3 (stably expressing PDGFRβ kinase), mouse Tel-VEGFR2-BaF3 (stably expressing VEGFR2 kinase), mouse Tel-FLT3-BaF3 (stably expressing FLT3 kinase) were also used. The above cell lines were all constructed by our laboratory. The construction method was as follows: the human C-KIT, C-KIT T670I, PDGFRα, PDGFRβ, VEGFR2, FLT3 kinase region sequences were amplified by PCR respectively and inserted into MSCV-Puro vector (purchased from Clontech) with N-terminal TEL fragment and/or NPM fragment and/or TPR fragment respectively, which was stably transferred into mouse BaF3 cells by retroviral method, and IL-3 growth factor was removed, and finally the cell lines in which protein was transferred depending on C-KIT, C-KIT/T670I, PDGFRα, PDGFRβ, VEGFR2, FLT3 were obtained. The GIST-T1-T670I (expressing C-KIT-T670I mutant gene) cell line was constructed by our laboratory. The construction method was as follows: the sgRNA targeting near the T670 site of the KIT gene was designed by the CRISPR design tool of the Zhang Feng Laboratory of the Massachusetts Institute of Technology (URL: crispr.mit.edu) and cloned into pSpCas9(BB)-2A-Puro vector (Addgene, USA); the obtained vector and a single-stranded oligonucleotide with T670I mutation near the T670 site were co-transfected into the cells, and after antibiotic selection, they were diluted and cultured in a single cell in a 96-well plate; the T670 site of the cells was sequenced and verified by the Sanger sequencing method.

[2] = tested on: TEL-cKIT-BaF3; assay: Cell proliferation (CCK-8, 72 h), TEL-cKIT-BaF3; conditions: Mus musculus, BaF3 expressing wild-type C-KIT kinase
From the text: as §1

[3] = tested on: TEL-cKIT/T670I-BaF3; assay: Cell proliferation (CCK-8, 72 h), TEL-cKIT/T670I-BaF3; conditions: Mus musculus; BaF3 expressing cKIT T670I mutant kinase, 72 h, CCK-8; read-out: GI50 TEL-cKIT/T670I-BaF3
From the text: as §1

[4] = tested on: TEL-VEGFR2-BaF3; assay: Cell proliferation (CCK-8, 72 h), TEL-VEGFR2-BaF3; conditions: Mus musculus, BaF3 expressing VEGFR2 kinase
From the text: as §1

[5] = tested on: TEL-PDGFRα-BaF3; assay: Cell proliferation (CCK-8, 72 h), TEL-PDGFRα-BaF3; conditions: Mus musculus, BaF3 expressing PDGFRα kinase
From the text: as §1

[6] = tested on: TEL-PDGFRβ-BaF3; assay: Cell proliferation (CCK-8, 72 h), TEL-PDGFRβ-BaF3; conditions: Mus musculus, BaF3 expressing PDGFRβ kinase
From the text: as §1

[7] = tested on: TEL-FLT3-BaF3; assay: Cell proliferation (CCK-8, 72 h), TEL-FLT3-BaF3; conditions: Mus musculus, BaF3 expressing FLT3 kinase
From the text: as §1

[8] = tested on: GIST-T1; assay: Cell proliferation (CCK-8, 72 h), GIST-T1; conditions: Homo sapiens, GISTT1, GIST-T1 (wild-type C-KIT gene)
From the text: as §1

[9] = tested on: GIST-T1-T670I; assay: Cell proliferation (CCK-8, 72 h), GIST-T1-T670I; conditions: Homo sapiens, GIST-T1-T670I (C-KIT-T670I mutant, Imatinib-resistant)
From the text: as §1

Structure (SMILES)	GI50 [1] [nM]	GI50 [2] [nM]	GI50 [3] [nM]	GI50 [4] [nM]	GI50 [5] [nM]	GI50 [6] [nM]	GI50 [7] [nM]	GI50 [8] [nM]	GI50 [9] [nM]
CNC(=O)c1ccccc1Sc1ccc2c(/C=C/c3ccccn3)n[nH]c2c1 [Axitinib, reference compound]	430	20	48	< 0.1	1.4	2	300	–	–
Cc1nc(NC(=O)c2ccc(CN3CCN(C)CC3)cc2)sc1-c1ccc2c(/C=C/c3ccccn3)n[nH]c2c1 [Compound 1, (E)-N-(4-methyl-5-(3-(2-(pyridin-2-yl)vinyl)-1H-indazol-6-yl)thiazol-2-yl)-4-((4-methylpiperazin-1-yl)methyl)benzamide]	58	24	3	16	1	3	< 1	–	–
Cc1nc(NC(=O)c2ccc(Cl)c(C(F)(F)F)c2)sc1-c1ccc2c(/C=C/c3ccccn3)n[nH]c2c1 [Compound 2, (E)-4-chloro-N-(4-methyl-5-(3-(2-(pyridin-2-yl)vinyl)-1H-indazol-6-yl)thiazol-2-yl)-3-(trifluoromethyl)benzamide]	> 10000	135	84	40	2	13	4	–	–
Cc1nc(NC(=O)Cc2cccc(C(F)(F)F)c2)sc1-c1ccc2c(/C=C/c3ccccn3)n[nH]c2c1 [Compound 3, (E)-N-(4-methyl-5-(3-(2-(pyridin-2-yl)vinyl)-1H-indazol-6-yl)thiazol-2-yl)-2-(3-(trifluoromethyl)phenyl)acetamide]	2310	35	28	13	2	12	0.1	–	–
Cc1nc(NC(=O)c2ccncc2)sc1-c1ccc2c(/C=C/c3ccccn3)n[nH]c2c1 [Compound 4, (E)-N-(4-methyl-5-(3-(2-(pyridin-2-yl)vinyl)-1H-indazol-6-yl)thiazol-2-yl) isonicotinamide]	> 10000	1550	6	7	2	1	4	–	–
CC(=O)Nc1ncc(-c2ccc3c(/C=C/c4ccccn4)n[nH]c3c2)s1 [Compound 5, (E)-N-(5-(3-(2-(pyridin-2-yl)vinyl)-1H-indazol-6-yl)thiazol-2-yl)acetamide]	2920	425	9	38	2	11	< 1	–	–
Cc1nc(NC(=O)c2cccc(C(F)(F)F)c2)sc1-c1ccc2c(/C=C/c3ccccn3)n[nH]c2c1 [Compound 6, (E)-N-(4-methyl-5-(3-(2-(pyridin-2-yl)vinyl)-1H-indazol-6-yl)thiazol-2-yl)-3-(trifluoromethyl)benzamide]	> 10000	24	12	5	1	3	2	–	–
Cc1nc(NC(=O)Cc2cccc3ccccc23)sc1-c1ccc2c(/C=C/c3ccccn3)n[nH]c2c1 [Compound 7, (E)-N-(4-methyl-5-(3-(2-(pyridin-2-yl)vinyl)-1H-indazol-6-yl)thiazol-2-yl)-2-(naphthalene-1-yl)acetamide]	3690	191	94	15	2.9	–	3	32	65
COc1ccc(CC(=O)Nc2nc(C)c(-c3ccc4c(/C=C/c5ccccn5)n[nH]c4c3)s2)cc1OC [Compound 8, (E)-2-(3,4-methoxyphenyl)-N-(4-methyl-5-(3-(2-(pyridin-2-yl)vinyl)-1H-indazol-6-yl)thiazol-2-yl)acetamide]	4870	216	19	19	1.2	–	0.4	–	–
